Reference: PubChem BioAssay (NCI)
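Cells were grown in 96-well plates and exposed to each compound for 48 hours at five concentrations; endpoints were interpolated linearly between bracketing concentrations, or set to the highest concentration if not reached. At the GI50, growth is halved. At the TGI there is no net growth.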 *1 amine or outer side, *2 acyl side, *3 side chain or, on linkers, in order; H or OH if unused. Where a SMILES comes first, the peptide text is derived from it. Bridges are numbered along the chain shown (N, C = ends). [ ]: non-standard residue; d: D form. The star is where a group is joined. X19 = O=C([C@H](N[*:1])c1ccc(O[C@H]2O[C@@H](CO)[C@@H](O)[C@@H](O)[C@H]2O[C@@H]2O[C@H](CO)[C@H](O)[C@H](O)[C@@H]2O)cc1)[*:2]; X18 = NC(=O)[C@@H](O[*:3])[C@H](N[*:1])C(=O)[*:2]; X20 = O=C([C@H](N[*:1])c1ccc(O)c(Cl)c1)[*:2]; d(aThr) = C[C@@H](O)[C@@H](N)C(=O)O; dHpg = N[C@@H](C(=O)O)c1ccc(O)cc1; X17 = CC(C)C/C=C/C=C/C(=O)*; dOrn = NCCC[C@@H](N)C(=O)O

Tests used:
Assay in all cases: inhibition of tumour cell growth, NCI panel, 48 h
ACHN renal = system: ACHN renal
BT-549 breast = system: BT-549 breast
CAKI-1 renal = system: CAKI-1 renal
HCT-116 colon = system: HCT-116 colon
MCF7 breast = system: MCF7 breast
NCI/ADR-RES ovarian = system: NCI/ADR-RES ovarian
OVCAR-5 ovarian = system: OVCAR-5 ovarian
SF-295 CNS = system: SF-295 CNS
SF-539 CNS = system: SF-539 CNS
UACC-62 melanoma = system: UACC-62 melanoma

Row | Structure (SMILES) | GI50 (ACHN renal) [µM] | TGI (ACHN renal) [µM] | GI50 (BT-549 breast) [µM] | TGI (BT-549 breast) [µM] | GI50 (CAKI-1 renal) [µM] | TGI (CAKI-1 renal) [µM] | GI50 (HCT-116 colon) [µM] | TGI (HCT-116 colon) [µM] | GI50 (MCF7 breast) [µM] | TGI (MCF7 breast) [µM] | GI50 (NCI/ADR-RES ovarian) [µM] | TGI (NCI/ADR-RES ovarian) [µM] | GI50 (OVCAR-5 ovarian) [µM] | TGI (OVCAR-5 ovarian) [µM] | GI50 (SF-295 CNS) [µM] | TGI (SF-295 CNS) [µM] | GI50 (SF-539 CNS) [µM] | TGI (SF-539 CNS) [µM] | GI50 (UACC-62 melanoma) [µM] | TGI (UACC-62 melanoma) [µM]
1 | O=C(NC1CCN(Cc2ccccc2)CC1)c1cc(C(=O)NC2CCN(Cc3ccccc3)CC2)cc(C(=O)NC2CCN(Cc3ccccc3)CC2)c1 | > 50 | > 50 | 2.01 | 11.4 | > 50 | > 50 | 3.51 | 14 | 0.946 | 1.85 | > 50 | > 50 | 6.83 | 13.7 | 6.76 | 15.6 | 0.865 | 1.62 | 7.71 | 15.2
2 | C[C@@H](Oc1cc(NS(=O)(=O)N2CCC2)nc(SCc2cccc(F)c2F)n1)[C@@H](O)CO | > 100 | > 100 | > 100 | > 100 | > 100 | > 100 | > 100 | > 100 | > 100 | > 100 | > 100 | > 100 | > 100 | > 100 | > 100 | > 100 | > 100 | > 100 | > 100 | > 100
3 | CC(C)C/C=C/C=C/C(=O)N[C@@H](CC(N)=O)C(=O)N[C@@H]1C(=O)N[C@H](c2ccc(O)cc2)C(=O)N[C@H](CCCN)C(=O)N[C@H]([C@@H](C)O)C(=O)N[C@H](c2ccc(O)cc2)C(=O)N[C@H](c2ccc(O)cc2)C(=O)N[C@H]([C@H](C)O)C(=O)N[C@H](Cc2ccccc2)C(=O)N[C@H](CCCN)C(=O)N[C@H](c2ccc(O[C@H]3O[C@@H](CO)[C@@H](O)[C@@H](O)[C@H]3O[C@@H]3O[C@H](CO)[C@H](O)[C@H](O)[C@@H]3O)cc2)C(=O)N[C@H]([C@H](C)O)C(=O)N[C@H](c2ccc(O)cc2)C(=O)NCC(=O)N[C@H](CC(C)C)C(=O)N[C@H](C)C(=O)N[C@H](c2ccc(O)c(Cl)c2)C(=O)O[C@@H]1C(N)=O (X17-N[X18][dHpg][dOrn][d(aThr)][dHpg][dHpg][dT][dF][dOrn][X19][dT][dHpg]G[dL][dA][X20]; ester 2-C) | 68.7 | > 100 | 37.6 | 87.1 | > 100 | > 100 | 32.9 | > 100 | 31.9 | 94.7 | 39.5 | > 100 | 27 | 63.5 | 15.8 | 46.1 | 22.8 | 60.9 | 21.2 | 45.1
4 | C#Cc1cccc(Nc2ncnc3ccc(-c4cnc(Cl)c(NS(C)(=O)=O)c4)cc23)c1 | 0.442 | > 100 | 0.183 | 1.41 | 0.164 | 1.82 | 0.4 | 3.15 | 0.104 | 2.57 | 1.24 | 10 | 0.329 | 2.73 | 0.376 | 2.17 | 0.302 | 1.68 | 0.149 | 1.07
5 | Cc1ccc(C(=O)CCC2C(=O)CC(C)(C)CC2=O)cc1 |  | > 100 |  | > 100 |  | 32 |  | > 100 |  | > 100 |  | > 100 |  | > 100 |  | > 100 |  | > 100 |  | > 100
6 | O=C(Nc1ccc(Cl)cc1)c1cc2cc(F)ccc2cc1O | 1.67 | 7.07 | 1.35 | 5.12 | 0.838 | 8.96 | 0.963 | 6.66 | 1.54 | 6.51 | 2.5 | 8.05 | 3.28 | > 100 | 2.47 | 6.72 | 1.26 | 14.3 | 0.622 | 23.6
7 | CCn1cc(C(=O)N/N=C/c2cccc(F)c2)c(=O)c2cc(F)c(N3CCNC(C)C3)c(F)c21 (centres undefined) | 1.63 | 2.99 | 1.62 | 3.05 | 1.73 | 3.15 | 1.75 | 3.47 | 1.64 | 3.18 | 1.81 | 3.41 | 1.7 | 3.1 | 1.8 | 3.29 | 1.59 | 2.96 | 1.77 | 3.2
8 | O=C1CCC2=C3C4CCCCC4C(=O)C4CCCC(OC2C1)C34 (centres undefined) | 0.382 |  | 1.4 | 6.03 | 1.34 | 5.47 | 0.316 | > 31.1 | 1.21 | > 100 | 0.36 | 4.06 | > 20.6 | > 100 | 2.49 | 15.5 | 2.44 | > 100 | 1.69 | 4.32
9 | COc1cc(C)[nH]c(=O)c1CN1CCc2c(Cl)cc([C@H](OC)C3COC3)c(Cl)c2C1=O | > 100 | > 100 | > 100 | > 100 | > 100 | > 100 | > 100 | > 100 | > 100 | > 100 | > 100 | > 100 | > 100 | > 100 | > 100 | > 100 | > 100 | > 100 | > 100 | > 100
10 | COC1OC(CBr)C(OC(c2ccccc2)(c2ccccc2)c2ccccc2)C(OC(c2ccccc2)(c2ccccc2)c2ccccc2)C1OC(c1ccccc1)(c1ccccc1)c1ccccc1 (centres undefined) |  | > 100 |  | > 100 |  | > 100 |  | > 100 |  | > 100 |  | > 100 |  | > 100 |  | > 100 |  | 68.7 |  | > 100
11 | CN(C)c1ccc2cc(-c3cc4c(oc3=O)-c3ccccc3OC4O)c(=O)oc2c1 (centres undefined) | 4.29 | 12.5 | 2.11 | 6.72 | 7.07 | > 25 | 1.44 | > 25 | 3.23 | 11.2 | 3.6 | 17.1 | 5.35 | 12.8 | 3.59 | 10.3 | 6.83 | > 25 | 4.08 | 8.53
